The target in one data set is T1, Pyk2 (Homo sapiens, UniProt Q14289).
T1 construct: purchased Promega V4083
Kind of data set: ADP-Glo Kinase Assay, Pyk2. Format: biochemical. The note with it: ADP-Glo Kinase Assay Kit. As to the method:
(§1) Briefly, a kinase test was performed and quantified according to the manufacturer's instructions after treating the adamantane derivative compound of the present invention by using the ADP-Glo™ Kinase Assay Kit (FAK, Promega, V1971; Pyk2, Promega, V4083; InsR, Promega, V9401) containing each kinase of Promega.
In general terms: ADP-Glo turns the ADP formed in a reaction into a luminescent signal.

The target in a further data set is T2, InsR (Homo sapiens, UniProt P06213).
T2 construct: purchased Promega V9401
Kind of data set: ADP-Glo Kinase Assay, InsR. It counts as biochemical. The following applies: ADP-Glo Kinase Assay Kit. As to the method:
as §1

Data set [1] addresses T3, FAK (Homo sapiens, UniProt Q05397). Kind of data set: ADP-Glo Kinase Assay, FAK. The arrangement: purchased Promega V1971. The note with it: ADP-Glo Kinase Assay Kit. Format: biochemical. As to the method:
as §1

Data set [2] deals with T3, FAK. Kind of data set: FAK [pY397] ELISA in MDA-MB-231 cells. Format: cell-based. The arrangement: endogenous in cells; host or cells: MDA-MB-231. The following applies: MDA-MB-231, treated for one hour, Table 2; read-out: FAK inhibitory activity (IC50). As to the method: Briefly, an enzyme-linked immunosorbent assay test was performed according to the manufacturer's instructions by using the FAK (Phospho) [pY397] Human ELISA Kit (Thermo Fisher Scientific, KH00441) after dispensing 1×10^6 MDA-MB-231 cells into each well of a 6-well plate, inducing cell stabilization for 24 hours, and treating each compound at different concentrations (o, 1, 5, 10, 50, 100, 500, 1000 nM) for one hour.
(In an ELISA, binding on a coated surface is turned into a signal by an enzyme label.)

For data set [3] the following is noted: preclinical study; cited from earlier work.

T2 sequence (P06213 28-1382): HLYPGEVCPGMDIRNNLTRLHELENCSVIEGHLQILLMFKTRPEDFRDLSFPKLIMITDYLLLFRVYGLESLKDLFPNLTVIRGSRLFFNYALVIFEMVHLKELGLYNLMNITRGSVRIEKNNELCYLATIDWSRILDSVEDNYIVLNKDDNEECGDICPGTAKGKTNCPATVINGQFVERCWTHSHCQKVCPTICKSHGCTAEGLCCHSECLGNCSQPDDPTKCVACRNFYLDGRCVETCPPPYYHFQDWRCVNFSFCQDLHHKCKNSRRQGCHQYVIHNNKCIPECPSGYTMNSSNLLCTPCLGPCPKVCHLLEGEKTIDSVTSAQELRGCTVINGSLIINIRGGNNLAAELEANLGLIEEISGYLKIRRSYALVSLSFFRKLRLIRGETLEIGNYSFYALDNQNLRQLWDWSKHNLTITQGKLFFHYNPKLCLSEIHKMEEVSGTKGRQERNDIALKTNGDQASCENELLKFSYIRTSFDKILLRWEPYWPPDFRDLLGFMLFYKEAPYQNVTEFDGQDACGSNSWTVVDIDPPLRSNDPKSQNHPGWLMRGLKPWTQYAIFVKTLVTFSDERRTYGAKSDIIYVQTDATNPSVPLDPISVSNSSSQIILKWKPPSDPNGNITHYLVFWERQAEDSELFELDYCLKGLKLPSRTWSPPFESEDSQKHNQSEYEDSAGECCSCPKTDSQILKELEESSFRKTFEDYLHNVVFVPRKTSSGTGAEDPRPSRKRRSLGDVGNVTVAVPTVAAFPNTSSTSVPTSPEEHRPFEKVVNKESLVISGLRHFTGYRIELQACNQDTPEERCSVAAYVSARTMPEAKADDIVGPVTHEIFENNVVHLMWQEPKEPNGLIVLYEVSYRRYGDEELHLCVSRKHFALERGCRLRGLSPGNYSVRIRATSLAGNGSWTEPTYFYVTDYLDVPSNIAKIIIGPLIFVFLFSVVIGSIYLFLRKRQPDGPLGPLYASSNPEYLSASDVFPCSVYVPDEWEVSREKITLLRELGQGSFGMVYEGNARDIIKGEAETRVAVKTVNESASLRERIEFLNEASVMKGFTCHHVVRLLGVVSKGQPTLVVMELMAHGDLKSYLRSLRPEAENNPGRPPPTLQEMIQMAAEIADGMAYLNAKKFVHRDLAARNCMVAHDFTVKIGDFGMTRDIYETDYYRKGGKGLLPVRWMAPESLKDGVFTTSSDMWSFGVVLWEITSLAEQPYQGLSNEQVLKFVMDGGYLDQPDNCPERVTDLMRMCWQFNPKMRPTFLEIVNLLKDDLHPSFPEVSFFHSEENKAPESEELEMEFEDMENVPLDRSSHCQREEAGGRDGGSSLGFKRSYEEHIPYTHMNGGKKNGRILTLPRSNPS
T1 sequence (Q14289 whole entry): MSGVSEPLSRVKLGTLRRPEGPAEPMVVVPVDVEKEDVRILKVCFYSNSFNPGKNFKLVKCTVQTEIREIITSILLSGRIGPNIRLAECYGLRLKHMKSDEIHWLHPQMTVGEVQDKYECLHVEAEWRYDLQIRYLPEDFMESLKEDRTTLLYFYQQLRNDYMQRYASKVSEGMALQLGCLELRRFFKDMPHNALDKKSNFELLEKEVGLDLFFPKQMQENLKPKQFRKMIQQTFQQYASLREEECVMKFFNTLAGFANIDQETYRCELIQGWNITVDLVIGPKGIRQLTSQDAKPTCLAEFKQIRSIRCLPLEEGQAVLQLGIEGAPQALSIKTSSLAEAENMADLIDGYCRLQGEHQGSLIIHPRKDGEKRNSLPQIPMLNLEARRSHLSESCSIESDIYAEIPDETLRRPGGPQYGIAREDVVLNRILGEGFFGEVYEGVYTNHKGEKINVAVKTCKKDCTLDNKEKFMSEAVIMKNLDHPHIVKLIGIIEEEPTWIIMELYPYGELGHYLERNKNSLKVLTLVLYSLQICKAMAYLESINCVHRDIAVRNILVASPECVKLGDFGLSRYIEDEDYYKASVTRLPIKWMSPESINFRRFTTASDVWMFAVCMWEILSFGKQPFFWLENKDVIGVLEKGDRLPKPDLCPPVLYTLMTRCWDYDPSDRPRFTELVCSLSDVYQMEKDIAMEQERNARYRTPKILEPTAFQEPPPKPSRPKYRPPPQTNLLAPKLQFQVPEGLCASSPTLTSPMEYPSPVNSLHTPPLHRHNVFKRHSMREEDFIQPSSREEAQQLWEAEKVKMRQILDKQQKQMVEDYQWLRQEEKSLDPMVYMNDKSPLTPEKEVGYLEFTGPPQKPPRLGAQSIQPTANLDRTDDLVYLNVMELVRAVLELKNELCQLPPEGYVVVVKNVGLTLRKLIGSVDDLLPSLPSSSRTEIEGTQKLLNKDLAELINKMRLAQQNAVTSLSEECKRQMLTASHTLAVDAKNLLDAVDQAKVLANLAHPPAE
T3 sequence (Q05397 whole entry): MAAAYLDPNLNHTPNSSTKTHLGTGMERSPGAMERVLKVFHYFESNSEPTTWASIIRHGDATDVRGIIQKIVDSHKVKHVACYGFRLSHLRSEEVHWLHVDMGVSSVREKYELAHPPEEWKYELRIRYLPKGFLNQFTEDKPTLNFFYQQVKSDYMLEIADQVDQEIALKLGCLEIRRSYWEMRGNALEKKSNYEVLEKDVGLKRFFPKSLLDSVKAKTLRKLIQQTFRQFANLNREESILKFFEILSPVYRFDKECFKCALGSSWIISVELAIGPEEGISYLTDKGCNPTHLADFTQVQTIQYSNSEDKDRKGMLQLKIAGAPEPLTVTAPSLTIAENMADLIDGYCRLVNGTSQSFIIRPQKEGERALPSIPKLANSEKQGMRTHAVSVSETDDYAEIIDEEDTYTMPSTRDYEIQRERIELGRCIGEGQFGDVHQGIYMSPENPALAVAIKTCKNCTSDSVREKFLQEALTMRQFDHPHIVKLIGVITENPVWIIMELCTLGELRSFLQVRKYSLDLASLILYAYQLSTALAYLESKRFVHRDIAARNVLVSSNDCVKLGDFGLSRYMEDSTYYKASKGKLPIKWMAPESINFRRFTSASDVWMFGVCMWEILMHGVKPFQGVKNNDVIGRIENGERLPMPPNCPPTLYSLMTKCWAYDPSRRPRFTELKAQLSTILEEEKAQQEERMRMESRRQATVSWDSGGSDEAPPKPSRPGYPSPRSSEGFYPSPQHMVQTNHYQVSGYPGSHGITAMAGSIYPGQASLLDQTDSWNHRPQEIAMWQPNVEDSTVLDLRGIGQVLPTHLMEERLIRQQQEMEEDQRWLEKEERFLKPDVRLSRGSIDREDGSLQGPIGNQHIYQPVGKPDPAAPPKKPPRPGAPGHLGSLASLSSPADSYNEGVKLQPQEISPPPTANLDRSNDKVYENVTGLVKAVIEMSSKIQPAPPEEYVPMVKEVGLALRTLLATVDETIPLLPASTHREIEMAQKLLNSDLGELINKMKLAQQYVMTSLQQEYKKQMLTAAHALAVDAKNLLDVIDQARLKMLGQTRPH

On to `CNC(=O)c1cccc(C)c1Nc1nc(Nc2ccc(N[C@H]3C4CC5CC3C[C@](O)(C5)C4)cc2OC)ncc1C(F)(F)F` [Compound 1, 2-((2-((4-(((trans)-5-hydroxyadamantan-2-yl)amino)-2-methoxyphenyl)amino)-5-(trifluoromethyl)pyrimidin-4-yl)amino)-N,3-dimethylbenzamide], for which the IC50 – broadly, the concentration that inhibits the measured activity by half – at Pyk2 was 124 nM; against InsR it was > 10000 nM; at FAK [1], 82.9 nM; on FAK [2], 83 nM.
Consider `CNC(=O)c1cccc(C)c1Nc1nc(Nc2ccc(N3CCN(C4C5CC6CC(C5)CC4C6)CC3)cc2OC)ncc1C(F)(F)F` (centres unmarked) [Compound 3, 2-((2-((4-(4-(adamantan-2-yl)piperazin-1-yl)-2-methoxyphenyl)amino)-5-(trifluoromethyl)pyrimidin-4-yl)amino)-N,3-dimethylbenzamide], for which the IC50 against Pyk2 was 256 nM; at InsR it was > 10000 nM; against FAK [1], 154 nM; on FAK [2], 92 nM.
For `CNC(=O)c1cccc(C)c1Nc1nc(Nc2ccc(NC3CCN(C4C5CC6CC(C5)CC4C6)CC3)cc2OC)ncc1C(F)(F)F` (centres unmarked) [Compound 6, 2-((2-((4-((1-(adamantan-2-yl)piperidin-4-yl)amino)-2-methoxyphenyl)amino)-5-(trifluoromethyl)pyrimidin-4-yl)amino)-N,3-dimethylbenzamide], the IC50 against Pyk2 is 157 nM; against InsR, > 10000 nM; at FAK [1], 96.5 nM; at FAK [2], 118 nM.
For the compound `CNC(=O)c1cccc(C)c1Nc1nc(Nc2ccc(NC3CCN([C@H]4C5CC6CC4C[C@](O)(C6)C5)CC3)cc2OC)ncc1C(F)(F)F` [Compound 7, 2-((2-((4-((1-((trans)-5-hydroxyadamantan-2-yl)piperidin-4-yl)amino)-2-methoxyphenyl)amino)-5-(trifluoromethyl)pyrimidin-4-yl)amino)-N,3-dimethylbenzamide], the IC50 against Pyk2 was determined as 108 nM; on InsR it was 6150 nM; against FAK [1], 46.9 nM; on FAK [2], 38 nM.
Regarding `CNC(=O)c1cccc(C)c1Nc1nc(Nc2ccc(NC3CCN([C@H]4C5CC6CC4C[C@@](O)(C6)C5)CC3)cc2OC)ncc1C(F)(F)F` [Compound 8, 2-((2-((4-((1-((cis)-5-hydroxyadamantan-2-yl)piperidin-4-yl)amino)-2-methoxyphenyl)amino)-5-(trifluoromethyl)pyrimidin-4-yl)amino)-N,3-dimethylbenzamide], the 50% inhibitory concentration (IC50) was > 10000 nM on InsR, 53.3 nM at FAK [1] and 121 nM at FAK [2].
The matching figures for `CNC(=O)c1cccc(C)c1Nc1nc(Nc2ccc(OC34CC5CC(C3)C(=O)C(C5)C4)cc2OC)ncc1C(F)(F)F` [Compound 10, 2-((2-((2-methoxy-4-((4-oxoadamantan-1-yl)oxy)phenyl)amino)-5-(trifluoromethyl)pyrimidin-4-yl)amino)-N,3-dimethylbenzamide]: > 10000 nM, 96.7 nM and 382 nM.
For `CNC(=O)c1cccc(C)c1Nc1nc(Nc2ccc(OC34CC5CC(C3)C(O)C(C5)C4)cc2OC)ncc1C(F)(F)F` (centres unmarked) [Compound 11, 2-((2-((4-((4-hydroxyadamantan-1-yl)oxy)-2-methoxyphenyl)amino)-5-(trifluoromethyl)pyrimidin-4-yl)amino)-N,3-dimethylbenzamide], the IC50 against Pyk2 is 231 nM; against InsR, > 10000 nM; at FAK [1], 65.1 nM; at FAK [2], 118 nM.
Taken in the same sequence, the figures for `CNC(=O)c1cccc(C)c1Nc1nc(Nc2ccc(NC(=O)C34CC5CC(C3)C(N3CCOCC3)C(C5)C4)cc2OC)ncc1C(F)(F)F` (centres unmarked) [Compound 25, N-(3-methoxy-4-((4-((2-methyl-6-(methylcarbamoyl)phenyl)amino)-5-(trifluoromethyl)pyrimidin-2-yl)amino)phenyl)-4-morpholinoadamantan-1-carboxamide] were 90.6 nM, > 10000 nM, 45.5 nM and 27 nM.
On to `CNC(=O)c1cccc(C)c1Nc1nc(Nc2ccc(NC(=O)[C@]34CC5CC(C3)[C@@H](N3CC[C@H](NC(C)=O)C3)C(C5)C4)cc2OC)ncc1C(F)(F)F` [Compound 27, (trans)-4-((S)-3-acetamidopyrrolidin-1-yl)-N-(3-methoxy-4-((4-((2-methyl-6-(methylcarbamoyl)phenyl)amino)-5-(trifluoromethyl)pyrimidin-2-yl)amino)phenyl) adamantan-1-carboxamide], for which the IC50 on Pyk2 was 81.4 nM; on InsR, > 10000 nM; on FAK [1], 39.5 nM; at FAK [2], 55 nM.
`CNC(=O)c1ccccc1Nc1nc(Nc2ccc(N3CCOCC3)cc2OC)ncc1Cl` [TAE226]: the side effects entry in data set [3] is recorded as “serious side effects such as unexpected inhibition of glucose metabolism, a decrease in blood concentration”.
